Data published in patent US20130190407A1, “CALCIUM RECEPTOR-ACTIVE MOLECULES” (NPS Pharmaceuticals, Inc., priority 1991, published 2013).
Structures can show the parent of a compound that is named as a salt. Where two headings read alike, the source gives them in different places. Each block holds one molecule with its values, some of them ahead of it.

What was measured:
[1] = molecular target: T1, parathyroid cell calcium receptor (Bos taurus, UniProt P35384); assay: Mobilization of intracellular Ca2+ ([Ca2+]i, fura-2) in bovine parathyroid cells; type: cell-based; set-up: Parathyroid glands were obtained from freshly slaughtered calves (12-15 weeks old); endogenous in cells; host or cells: dissociated primary bovine (calf) parathyroid cells; conditions: for compounds with any effect on basal [Ca2+]i or increases evoked by extracellular Ca2+: tested at 1 μM; for influx of extracellular Ca2+ / potentiation of Ca2+ mobilization / transient increases in [Ca2+]i: verapamil, D-600, TMB-8 100 μM, NPS 384 300 μM
T1 sequence (P35384 20-1085): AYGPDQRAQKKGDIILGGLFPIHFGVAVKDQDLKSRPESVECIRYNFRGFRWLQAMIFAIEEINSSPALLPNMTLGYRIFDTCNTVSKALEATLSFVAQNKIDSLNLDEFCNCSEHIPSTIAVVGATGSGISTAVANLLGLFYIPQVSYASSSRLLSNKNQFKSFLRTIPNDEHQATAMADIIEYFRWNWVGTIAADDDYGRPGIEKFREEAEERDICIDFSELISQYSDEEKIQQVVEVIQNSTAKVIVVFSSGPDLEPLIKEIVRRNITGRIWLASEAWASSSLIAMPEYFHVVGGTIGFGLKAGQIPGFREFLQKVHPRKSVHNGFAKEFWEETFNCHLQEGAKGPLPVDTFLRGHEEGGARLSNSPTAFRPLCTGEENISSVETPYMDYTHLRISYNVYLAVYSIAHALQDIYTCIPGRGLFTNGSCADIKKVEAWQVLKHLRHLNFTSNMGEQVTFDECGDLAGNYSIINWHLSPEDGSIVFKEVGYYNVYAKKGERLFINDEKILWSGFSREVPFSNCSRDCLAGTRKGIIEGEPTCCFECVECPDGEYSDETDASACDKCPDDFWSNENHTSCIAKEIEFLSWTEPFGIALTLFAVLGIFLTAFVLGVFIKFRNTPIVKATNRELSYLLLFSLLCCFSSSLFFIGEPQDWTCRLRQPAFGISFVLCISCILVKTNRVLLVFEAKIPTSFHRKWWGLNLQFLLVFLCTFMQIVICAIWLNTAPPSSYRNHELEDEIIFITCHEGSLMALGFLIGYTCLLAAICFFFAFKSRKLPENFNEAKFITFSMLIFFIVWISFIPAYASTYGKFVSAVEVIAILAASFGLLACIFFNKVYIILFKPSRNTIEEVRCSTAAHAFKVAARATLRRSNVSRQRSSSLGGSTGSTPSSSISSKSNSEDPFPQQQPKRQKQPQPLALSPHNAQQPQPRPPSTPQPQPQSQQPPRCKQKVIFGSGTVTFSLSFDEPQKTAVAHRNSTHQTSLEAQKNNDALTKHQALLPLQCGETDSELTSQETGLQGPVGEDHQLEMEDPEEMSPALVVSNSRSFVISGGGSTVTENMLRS

Sprague-Dawley rats = assay: Serum/plasma Ca2+, PTH and calcitonin in rats in vivo; set-up: species or system rat; conditions: i.p.
Method: Compounds shown to activate the bovine parathyroid cell calcium receptor in vitro were tested for hypocalcemic activity in vivo. Male Sprague-Dawley rats (200 g) were maintained on a low calcium diet for one week prior to receiving test substance or vehicle as control. Blood was collected from the tail vein three hours after the intra-peritoneal administration of NPS 467. […] Serum total calcium, albumin and phosphate were measured by techniques well known in the art.
Rats (male, Sprague-Dawley, 250-300 g) were fed standard rat chow and fasted overnight prior to the experiment. NPS R-467 was suspended in corn oil, and administered as a single oral dose through a gavage needle. Three hours later a sample of blood was taken from the tail vein and assessed for ionized Ca^2+ levels.

[2] = molecular target: bovine parathyroid cell calcium receptor (bovine) (UniProt P35384); assay: cell-based or functional assay
[3] = EC50 for mobilization of intracellular Ca2+, bovine parathyroid cells
[4] = Table 8 (arylalkylamine calcimimetics), parathyroid cell calcium receptor in vitro, read-out: EC50
[5] = 100 to 1000 μM, buffer containing 2 mM CaCl2

Molecule: COc1ccc([C@@H](C)N[C@H](C)c2cccc3ccccc23)cc1C [Compound 17P, (R,R)—N-(1-(4-Methoxy-3-methylphenyl)ethyl)-1-(1-naphthyl)ethylamine hydrochloride]
EC50 [1, 3]: < 5000 nM
EC50 [1, 4]: 40 nM

Molecule: N[C@@H](CCC(=O)O)C(=O)O [glutamate]
response to mGluR agonists ([1]; bovine parathyroid cells or Xenopus oocytes expressing calcium receptors): did not respond

Molecule: COc1cccc(C(C)NCCCc2ccccc2)c1 (racemic) [NPS 467]
time course of hypocalcemic effect (Sprague-Dawley rats): maximal within three hours
serum or whole blood Ca2+ (Sprague-Dawley rats; three hours, low calcium diet): dose-dependent reduction in serum or whole blood Ca^2+
circulating levels of PTH (Sprague-Dawley rats; preliminary studies): dose-dependent reduction in circulating levels of PTH

Molecule: COc1cccc(C(C)NCCC(c2ccccc2)c2ccccc2)c1 (stereo not drawn) [meta-Methoxyfendiline]
potency in mobilization of intracellular Ca2+ ([1]; racemic mixture): as potent as NPS 467

Molecule: N=C(N)NCCC[C@H](N)C(=O)NCCCNCCCNCCCCCNC(=O)[C@H](CC(N)=O)NC(=O)Cc1ccc(O)cc1O [Argiotoxin-636, argiotoxin 636]
effect on cytosolic Ca2+ responses to subsequent extracellular Ca2+ ([1]; 400 μM): did potentiate cytosolic Ca^2+ responses
increases in [Ca2+]i ([1]; 400 μM): did not elicit increases in [Ca^2+]
effect on [Ca2+]i ([1]; tested at 100 to 300 μM): no effect

Molecule: polyLys (3.8) (peptide)
EC50 for the mobilization of intracellular Ca^2+ (fura-2, bovine parathyroid cells) [2]: 3000 nM

Molecule: COc1ccc(CN[C@H](C)c2cccc3ccccc23)cc1Cl [Compound 17M, (R)—N-(3-Chloro-4-methoxybenzyl)-1-(1-naphthyl)ethylamine hydrochloride]
EC50 [1, 3]: < 5000 nM
EC50 [1, 4]: 150 nM

Molecule: N=C(N)NCCC[C@H](N)C(=O)NCCCNCCCNCCCCCNC(=O)[C@H](CC(N)=O)NC(=O)Cc1c[nH]c2cccc(O)c12 [Argiotoxin-659, argiotoxin 659]
effect on [Ca2+]i ([1]; tested at 100 to 300 μM): evoked transient increases in [Ca^2+]i

Molecule: COC(=O)C1=C(C)NC(C)=C([N+](=O)[O-])C1c1ccccc1C(F)(F)F (stereo not drawn) [BAY K 8644]
compounds with any effect on basal [Ca2+]i or increases evoked by extracellular Ca2+ [1]: None

Molecule: NCCCCCCCCCCCCN [NPS 472, 1,12-diaminododecane]
effect on [Ca2+]i [1, 5]: prompt fall in [Ca^2+]i

Molecule: NCCCCN [Putrescine]
effect on mobilization of intracellular Ca2+ ([1]; tested at 2 mM): inactive

Molecule: CC(C)c1ccc(CN[C@H](C)c2cccc3ccccc23)cc1 [Compound 11X, (R)—N-(4-Isopropylbenzyl)-1-(1-naphthyl)ethylamine hydrochloride]
EC50 [1, 3]: < 5000 nM

Molecule: C1CNCCNCCNCCNCCNCCN1 [Hexacyclen, 1,4,7,10,13,16-hexaaza-cyclooctadecane]
potency relative to NPS 383 [1]: 7 fold
potency relative to pentaethylenehexamine [1]: 25 fold

Molecule: COc1ccc(CC(=O)NCCCCCCCCCCCCN)cc1OC [NPS 384]
increase in [Ca2+]i ([1]; 300 μM): did not evoke an increase in [Ca^2+]i
effect on [Ca2+]i [1, 5]: prompt fall in [Ca^2+]i
influx of extracellular Ca2+ [1]: blocked influx of extracellular Ca^2+
potentiation of Ca2+ mobilization / transient increases in [Ca2+]i [1]: fails to do so

Molecule: CCN(CC)CCCCCCCCOC(=O)c1cc(OC)c(OC)c(OC)c1 [TMB-8]
influx of extracellular Ca2+ [1]: blocked the influx of extracellular Ca^2+
potentiation of Ca2+ mobilization / transient increases in [Ca2+]i [1]: potentiated the mobilization of intracellular Ca^2+
potentiation of Ca2+ mobilization / transient increases in [Ca2+]i ([1]; listed as TNB-8): potentiated transient increases in [Ca^2+]i

Molecule: polyLys (14) (peptide)
EC50 for the mobilization of intracellular Ca^2+ (fura-2, bovine parathyroid cells) [2]: 1000 nM

Molecule: Philanthotoxin-433
effect on mobilization of intracellular Ca2+ ([1]; tested at 500 μM): without effect

Molecule: NCCCCCCCCCCCCNC(=O)Cc1ccc(O)cc1O [NPS 021]
increase in [Ca2+]i evoked by extracellular Ca2+ ([1]; around 500 μM): abolished
change in [Ca2+]i by itself ([1]; low [Ca2+] 0.5 mM): does not by itself cause any change in [Ca^2+]i

Molecule: polyLys (27) (peptide)
EC50 for the mobilization of intracellular Ca^2+ (fura-2, bovine parathyroid cells) [2]: 30 nM

Molecule: polyArg (100) (peptide)
EC50 for the mobilization of intracellular Ca^2+ (fura-2, bovine parathyroid cells) [2]: 4 nM

Molecule: NCCCCCN [Cadaverine, cadaverine]
effect on mobilization of intracellular Ca2+ ([1]; tested at 2 mM): inactive

Molecule: COc1ccc([C@@H]2Sc3ccccc3N(CCN(C)C)C(=O)[C@@H]2OC(C)=O)cc1 [diltiazem]
activity like verapamil and D-600 ([1]; 100 μM): effective

Molecule: polyArgTyr (22) (peptide)
EC50 for mobilizing intracellular Ca^2+ [2]: < 100 nM
EC50 for the mobilization of intracellular Ca^2+ (fura-2, bovine parathyroid cells) [2]: 200 nM

Molecule: COc1ccc(CCN(C)CCCC(C#N)(c2cc(OC)c(OC)c(OC)c2)C(C)C)cc1OC [Compound D-600]
influx of extracellular Ca2+ [1]: blocked the influx of extracellular Ca^2+
potentiation of Ca2+ mobilization / transient increases in [Ca2+]i [1]: potentiated the mobilization of intracellular Ca^2+

Molecule: COc1ccc([C@@H](C)N[C@H](C)c2cccc3ccccc23)cc1 [Compound 14U, (R,R)—N-(1-(4-Methoxyphenyl)ethyl)-1-(1-naphthyl)ethylamine hydrochloride]
EC50 [1, 3]: < 5000 nM
EC50 [1, 4]: 130 nM

Molecule: protamine (peptide)
cyclic AMP (% of control), isoproterenol-stimulated, 2 ug/ml protamine, +PTx [2]: 89 % of control
cyclic AMP (% of control), isoproterenol-stimulated, 2 ug/ml protamine, control [2]: 20 % of control
potency in mobilizing intracellular Ca^2+ in parathyroid cells (EC50) [2]: 40 nM

Molecule: CC1=C(C(=O)OC(C)C)[C@@H](c2cccc3nonc23)C([N+](=O)[O-])=C(C)N1 [(−) 202-791]
compounds with any effect on basal [Ca2+]i or increases evoked by extracellular Ca2+ [1]: None

Molecule: CC1=C(C(=O)OC(C)C)[C@H](c2cccc3nonc23)C([N+](=O)[O-])=C(C)N1 [(+) 202-791]
compounds with any effect on basal [Ca2+]i or increases evoked by extracellular Ca2+ [1]: None

Molecule: CCC[C@@H]1C[C@@H](C(=O)N[C@@H]([C@H]2O[C@H](SC)[C@H](O)[C@@H](O)[C@H]2O)[C@@H](C)O)N(C)C1 [Lincomycin, lincomycin]
effect on mobilization of intracellular Ca2+ ([1]; tested at 500 μM): without effect

Further lines, results first:

EC50 [1, 4]: < 1000 nM
Molecule: COc1ccc(CCCN[C@H](C)c2cccc(OC)c2)cc1 [Compound 20I]

EC50 [1, 3]: < 5000 nM
Molecule: C[C@@H](NCCCc1ccccc1Cl)c1cccc2ccccc12 [Compound 12Z, (R)—N-3-(2-Chlorophenyl)-1-propyl-1-(1-naphthyl)ethylamine hydrochloride]

EC50 [1, 3]: < 5000 nM
EC50 [1, 4]: 780 nM
Molecule: CSc1cccc(C(C)NCCCc2ccccc2)c1 (stereo not drawn) [Compound 8J, N-(3-Phenylpropyl)-1-(3-thiomethylphenyl)ethylamine hydrochloride]
